Here are results for four compounds from US20090202540A1, “SUBSTITUTED OXAZAPHOSPHORINES” (Auspex Pharmaceuticals, Inc., priority 2008, published 2009).

Where two headings read alike, the source gives them in different places.

For this data set the following is noted: 1 mg per mL liver microsome protein, 1 μM compound, 37° C., compared to the non-isotopically enriched drug. On the technique in general: Liver microsomes are a subcellular fraction often used to study metabolism.

Experimental: Liver microsomal stability assays were conducted at 1 mg per mL liver microsome protein with an NADPH-generating system in 2% NaHCO3 (2.2 mM NADPH, 25.6 mM glucose 6-phosphate, 6 units per mL glucose 6-phosphate dehydrogenase and 3.3 mM MgCl2). Test compounds were prepared as solutions in 20% acetonitrile-water and added to the assay mixture (final assay concentration 1 μM) and incubated at 37° C. Final concentration of acetonitrile in the assay should be <1%. Aliquots (50 μL) were taken out at times 0, 15, 30, 45, and 60 min, and diluted with ice cold acetonitrile (200 μL) to stop the reactions. Samples were centrifuged at 12,000 RPM for 10 min to precipitate proteins. Supernatants were transferred to micro centrifuge tubes and stored for LC/MS/MS analysis of the degradation half-life of the test compounds.

In the case of `[2H]C1([2H])CCOP(=O)(N(C([2H])([2H])C([2H])([2H])Cl)C([2H])([2H])C([2H])([2H])Cl)N1` (stereo not shown) [Example 5, d8-Bis-(2-chloro-ethyl)-(2-oxo-2λ^5-[1,3,2]oxazaphosphinan-2yl)-d2-amine], the “% increase of HLM degradation half-life” value (0%-50%) is recorded as “+ (0%-50%)”.

As to `[2H]C([2H])(Cl)C([2H])([2H])N(C([2H])([2H])C([2H])([2H])Cl)P1(=O)NCCCO1` (stereo not shown) [Example 1, d8-Bis-(2-chloro-ethyl)-(2-oxo-2λ^5-[1,3,2]oxazaphosphinan-2yl)-amine], the “% increase of HLM degradation half-life” value (column −25%-0%) was “+ (−25%-0%)”.

Regarding `[2H]C1([2H])CCNP(=O)(N(CCCl)CCCl)O1` (stereo not shown) [Example 2, Bis-(2-chloro-ethyl)-(d2-2-oxo-2λ^5-[1,3,2]oxazaphosphinan-2yl)-amine], the “% increase of HLM degradation half-life” value (50%-150%) is given as “+ (50%-150%)”.

As to `[2H]C1([2H])CCNP(=O)(N(C([2H])([2H])C([2H])([2H])Cl)C([2H])([2H])C([2H])([2H])Cl)O1` (stereo not shown) [Example 3, d8-Bis-(2-chloro-ethyl)-(d2-2-oxo-2λ^5-[1,3,2]oxazaphosphinan-2yl)amine], the “% increase of HLM degradation half-life” value (50%-150%) is “+ (50%-150%)”.
